Laboratory results taken from the RepoRT retention time repository (doi:10.1016/j.foodchem.2021.129757).

Tests used:
Conditions in all cases: stereoisomer not certain
[1] = Other, Phenomenex Kinetex PFP, 100 × 4.6 mm, 2.6 µm, 35 °C, 1.5 mL/min, estimated dead time 0.71 min; A: water + 0.1% trifluoroacetic acid, pH 2; B: acetonitrile + 0.1% trifluoroacetic acid, pH 2; gradient (min/%B) 0/1 7/7.5 14/7.6 17/10 18.5/12 20/12.5 24/30 25/90 25.1/1 32/1
[2] = RP, Agilent ZORBAX RRHD Eclipse Plus C18, 50 × 2.1 mm, 1.8 µm, 30 °C, 0.4 mL/min, estimated dead time 0.28 min; A: water + 0.1% formic acid, pH 3; B: acetonitrile + 0.1% formic acid, pH 3; gradient (min/%B) 0/1 5/10 8/25 9.1/99 10/99 12/1
[3] = RP, Agilent ZORBAX RRHD Eclipse Plus C18, 50 × 2.1 mm, 1.8 µm, 30 °C, 0.4 mL/min, estimated dead time 0.28 min; A: water + 0.1% formic acid, pH 3; B: acetonitrile + 0.1% formic acid, pH 3; gradient (min/%B) 0/1 5/10 8/25 9.1/99 10/99 12/99
[4] = RP, 150 × 2.1 mm, 2.6 µm, 40 °C, 0.35 mL/min, estimated dead time 0.94 min; A: water + 0.1% formic acid, pH 3; B: acetonitrile + 0.1% formic acid, pH 3; gradient (min/%B) 0/0 1/0 12.5/100 14/100 14.2/0 15/0
[5] = RP, 150 × 2.1 mm, 2.6 µm, 40 °C, 0.35 mL/min, estimated dead time 0.94 min; A: water + 0.1% formic acid, pH 3; B: acetonitrile + 0.1% formic acid, pH 3; gradient (min/%B) 0/0 1/5 7/45 8.5/80 10.5/80 11/5 12/5
[6] = RP, Phenomenex Synergi Hydro-RP, 250 × 2 mm, 4 µm, 25 °C, 0.2 mL/min, estimated dead time 2.5 min; A: water + 0.1% formic acid, pH 3; B: acetonitrile + 0.1% formic acid, pH 3; gradient (min/%B) 0/0.5 7/0.5 12/12.5 25/16.3 47/35 48/65 50/65 50.1/0.5
[7] = RP, Waters ACQUITY UPLC HSS T3, 100 × 2.1 mm, 50 °C; A: water + 0.1% formic acid, pH 3; B: 30% methanol + 70% acetonitrile + 0.1% formic acid, pH 3; gradient (min/%B) 0/5 1/8 2/15 3/40 4/70 4.5/100 5/100 6.4/100 6.6/5 6.8/5 7/5
[8] = RP, Phenomenex Kinetex EVO C18, 100 × 2.1 mm, 2.6 µm, 40 °C, 0.4 mL/min, estimated dead time 0.55 min; A: water + 0.2% formic acid; B: acetonitrile + 0.2% formic acid; gradient (min/%B) 0/5 0.5/5 7/95 8/95 8.5/5 12/5
[9] = RP, Agilent ZORBAX Eclipse XDB-C18, 100 × 2.1 mm, 1.8 µm, 50 °C, 0.4 mL/min, estimated dead time 0.55 min; A: water + 0.1% formic acid, pH 3; B: methanol + 0.1% formic acid, pH 3; gradient (min/%B) 0/2 10/100 14.5/100 14.51/2 16.5/2
[10] = RP, Waters ACQUITY UPLC BEH C18, 100 × 2.1 mm, 1.7 µm, 65 °C, 0.4 mL/min, estimated dead time 0.55 min; A: water + 0.1% formic acid, pH 3; B: 80% acetonitrile + 20% acetone + 0.1% formic acid, pH 3; gradient (min/%B) 0/0 5/100 5.5/0 6/0
[11] = RP, Waters Atlantis T3, 100 × 2.1 mm, 3 µm, 40 °C, 0.3 mL/min, estimated dead time 0.73 min; A: water + 0.1% trifluoroacetic acid, pH 2; B: acetonitrile + 0.1% trifluoroacetic acid, pH 2; gradient (min/%B) 0/10 1/10 6/40 7/50 8/50 14/70 16/80 20/10 25/10
[12] = RP, Agilent InfinityLab Poroshell 120 EC-C18, 100 × 3 mm, 2.7 µm, 25 °C, 0.4 mL/min, estimated dead time 1.1 min; A: water + 0.1% formic acid, pH 3; B: acetonitrile + 0.1% formic acid, pH 3; gradient (min/%B) 0/5 10/25 20/40 24/90 25/90 26/5 30/5
[13] = RP, Phenomenex Luna Omega Polar C18, 100 × 2.1 mm, 1.6 µm, 40 °C, 0.5 mL/min, estimated dead time 0.44 min; A: water + 0.1% formic acid + 10 mM ammonium formate; B: acetonitrile; gradient (min/%B) 0/5 8/20 10/100 12/100 12.1/5 14/5
[14] = RP, Merck LiChrospher RP-18, 250 × 4 mm, 5 µm, 35 °C, 0.3 mL/min, estimated dead time 6.7 min; A: water + 0.5% formic acid; B: acetonitrile + 0.5% formic acid; gradient (min/%B) 0/5 10/5 30/15 45/20 65/20 95/54 110/63 115/5 135/5
[15] = RP, Merck Supelco SUPELCOSIL LC-C18, 250 × 4.6 mm, 5 µm, 40 °C, 1 mL/min, estimated dead time 2.6 min; A: water + 0.1% trifluoroacetic acid, pH 2; B: acetonitrile + 0.1% trifluoroacetic acid, pH 2; gradient (min/%B) 0/5 45/35 47/75 49/35 50/5
[16] = RP, Phenomenex Luna Omega Polar C18, 100 × 2.1 mm, 1.6 µm, 40 °C, 0.5 mL/min, estimated dead time 0.44 min; A: water + 0.5% formic acid; B: acetonitrile + 0.5% formic acid; gradient (min/%B) 0/5 3/50 3.1/100 5/100 5.1/5 7/5
[17] = RP, Phenomenex Synergi Hydro-RP, 150 × 2 mm, 4 µm, 30 °C, 0.5 mL/min, estimated dead time 0.6 min; A: water + 0.1% formic acid, pH 3; B: acetonitrile + 0.1% formic acid, pH 3; gradient (min/%B) 0/5 1/5 35/45 40/100 45/100
[18] = RP, Waters ACQUITY UPLC HSS T3, 100 × 2.1 mm, 1.8 µm, 30 °C, 0.4 mL/min, estimated dead time 0.55 min; A: water + 0.1% formic acid, pH 3; B: acetonitrile + 0.1% formic acid, pH 3; gradient (min/%B) 0/0 2/0 15/100 22/100 22.1/0 26/0
[19] = RP, Waters ACQUITY UPLC BEH Shield RP18, 150 × 2.1 mm, 1.7 µm, 40 °C, 0.4 mL/min, estimated dead time 0.83 min; A: water + 0.1% formic acid, pH 3; B: acetonitrile + 0.1% formic acid, pH 3; gradient (min/%B) 0/0 30/50 31/100 37/100 37.1/0
[20] = RP, 50 × 0.5 mm, 2.7 µm, 35 °C, 0.01 mL/min, estimated dead time 0.62 min; A: water + 0.1% formic acid, pH 3; B: acetonitrile + 0.1% formic acid, pH 3; gradient (min/%B) 0/5 12/95 14/95 16/5
[21] = RP, 100 × 0.5 mm, 2.7 µm, 45 °C, 0.015 mL/min, estimated dead time 0.83 min; A: water + 0.9% formic acid; B: acetonitrile + 0.9% formic acid; gradient (min/%B) 0/1 0.5/1 4/95 4.5/1 5/1
[22] = RP, Phenomenex Luna C18, 150 × 4.6 mm, 3 µm, 25 °C, 0.5 mL/min, estimated dead time 3.2 min; A: water + 0.1% formic acid, pH 3; B: acetonitrile + 0.1% formic acid, pH 3; gradient (min/%B) 0/0 30/30 35/40 50/80 52/80 60/0 65/0
[23] = RP, Waters ACQUITY UPLC BEH Shield RP18, 100 × 2.1 mm, 1.7 µm, 30 °C, 0.6 mL/min, estimated dead time 0.37 min; A: water + 0.1% formic acid, pH 3; B: acetonitrile + 0.1% formic acid, pH 3; gradient (min/%B) 0/0 2/0 7/10 22/95 22.1/0 26/0
[24] = Other, Phenomenex Kinetex PFP, 100 × 4.6 mm, 5 µm, 45 °C, 0.6 mL/min, estimated dead time 1.8 min; A: water + 0.1% trifluoroacetic acid, pH 2; B: methanol; gradient (min/%B) 0/40 20/72 21/40

`Cc1ccc(C(=O)NCC(=O)O)cc1` [4-methylhippuric acid] showed an LC retention time [1] of 14.5 min.

For `O=C(O)CC(=O)O` [Malonic acid], the LC retention time [1] was 1.52 min.

Work on `O=C(O)c1cc(O)cc(O)c1` [3,5-Dihydroxybenzoic acid] yielded an LC retention time [1] of 4.93 min, an LC retention time [2] of 4.25 min and an LC retention time [3] of 2.82 min.

With `O=Cc1ccc(O)cc1O` [2,4-dihydroxybenzaldehyde] the LC retention time [1] was 14.7 min.

In the case of `COC(=O)c1ccc(O)c(O)c1` [Methyl 3,4-dihydroxybenzoate], the LC retention time [1] is reported as 15.3 min.

Work on `COc1cc2ccc(=O)oc2cc1O` [Scopoletin] yielded an LC retention time [4] of 5.86 min, an LC retention time [1] of 20.4 min and an LC retention time [5] of 5.8 min.

For `O=Cc1c(O)cc(O)cc1O` [Phloroglucinol aldehyde], the LC retention time [1] was 18.5 min and the LC retention time [6] was 27.6 min.

Work on `O=c1ccc2ccc(O)c(O)c2o1` [7,8-Dihydroxycoumarin] yielded an LC retention time [4] of 4.84 min, an LC retention time [1] of 12 min and an LC retention time [2] of 6.14 min. It also gave an LC retention time [5] of 4.64 min.

`O=C(O)c1c(O)cc(O)cc1O` [2,4,6-trihydroxybenzoic acid] gave an LC retention time [1] of 9.72 min and an LC retention time [6] of 15.9 min.

Compound `COc1cccc(O)c1C(=O)O` [6-Methoxysalicyclic acid] has an LC retention time [1] of 22.1 min.

In the case of `O=Cc1ccc(O)cc1` [4-Hydroxybenzaldehyde], the LC retention time [7] is reported as 3.28 min, the LC retention time [1] is reported as 9.81 min and the LC retention time [8] is reported as 3.43 min. It also gave an LC retention time [2] of 5.23 min, an LC retention time [3] of 4.4 min and an LC retention time [9] of 3.42 min. The LC retention time [10] was 1.92 min.

Compound `Cc1cccc(C(=O)NCC(=O)O)c1` [3-methylhippuric acid] has an LC retention time [1] of 14.8 min.

With `COC(=O)c1cc(O)c(O)c(O)c1` [Methyl 3,4,5-trihydroxybenzoate] the LC retention time [1] was 8.64 min.

Compound `COc1ccc(C(=O)O)cc1` [p-anisic acid] has an LC retention time [1] of 20.6 min and an LC retention time [6] of 39.1 min.

In the case of `O=C(O)c1ccc(O)cc1O` [2,4-Dihydroxybenzoic acid], the LC retention time [1] is reported as 10.9 min, the LC retention time [2] is reported as 5.18 min and the LC retention time [11] is reported as 5.01 min. For the same compound, the LC retention time [3] was 3.99 min and the LC retention time [12] was 6.36 min.

`Oc1ccc(C=Cc2cc(O)cc(O)c2)cc1` [Resveratrol] gave an LC retention time [13] of 9.3 min, an LC retention time [14] of 85.7 min and an LC retention time [15] of 31.6 min. For the same compound, the LC retention time [16] was 2.96 min, the LC retention time [17] was 20 min and the LC retention time [18] was 10.4 min. For the same compound, the LC retention time [19] was 17.9 min, the LC retention time [20] was 5.18 min and the LC retention time [21] was 2.88 min. It also gave an LC retention time [22] of 38.8 min, an LC retention time [23] of 14.7 min and an LC retention time [9] of 5.24 min. It also gave an LC retention time [12] of 14.7 min, an LC retention time [10] of 2.48 min and an LC retention time [24] of 10.8 min.

`O=C(O)c1cccc(O)c1O` [2,3-Dihydroxybenzoic acid] gave an LC retention time [1] of 9.73 min, an LC retention time [2] of 5.18 min and an LC retention time [11] of 4.79 min. For the same compound, the LC retention time [3] was 3.99 min and the LC retention time [9] was 3.5 min.

`O=C(C=Cc1ccc(O)c(O)c1)OC(Cc1ccc(O)c(O)c1)C(=O)O` (stereo not given) [Rosmarinic acid] showed an LC retention time [13] of 8.46 min, an LC retention time [14] of 79.8 min and an LC retention time [15] of 31 min. The LC retention time [17] was 18.4 min, the LC retention time [18] was 9.87 min and the LC retention time [19] was 14.6 min. The LC retention time [20] was 4.8 min, the LC retention time [21] was 2.28 min and the LC retention time [11] was 8.18 min. For the same compound, the LC retention time [22] was 30 min, the LC retention time [23] was 13.7 min and the LC retention time [6] was 39.2 min. For the same compound, the LC retention time [9] was 5.41 min, the LC retention time [12] was 11.5 min and the LC retention time [24] was 9.57 min.

`COC(=O)c1ccc(O)c(OC)c1` [Methyl vanillate] gave an LC retention time [1] of 23 min and an LC retention time [9] of 5.37 min.

Compound `O=C(O)c1ccccc1O` [Salicylic acid] has an LC retention time [14] of 81.6 min, an LC retention time [1] of 18.9 min and an LC retention time [18] of 10.5 min. It also gave an LC retention time [19] of 12.8 min, an LC retention time [2] of 8.13 min and an LC retention time [3] of 8.16 min. For the same compound, the LC retention time [6] was 37.4 min and the LC retention time [9] was 5.25 min.
